The record followed here is patent US10908153B2, “Pseudomonas aeruginosa inhibitor compounds” (priority 2015, dated 2021).

The assay concerns the target T1, PscE-PscG interaction (Pseudomonas aeruginosa, UniProt P95435+Q9I317).
T1 construct: made in house; host or cells: E. coli
Briefly: ELISA test of inhibition of the PscE-PscG interaction. The format is binding. As to conditions: for PscE-PscG at 50 μM: inhibition by new synthetic analogues at 50 μM, PscG 2.2 μM, PscE solution 3 μM; for inhibition at 50 µM: 4 h, read-out: PscE-PscG at 50 μM; for inhibition at 25 µM: read-out: % inhibition PscE-PscG at 50 μm; for inhibitory effect compared with clioquinol: ELISA test, 50 μM, Table 2. Here is the method: 50 μL of PscG protein at 1 μM (for screening libraries) or 2.2 μM (for screening newly synthesized molecules) is incubated in a NUNC 96-well plate for 8 h at 4° C. The wells are washed three times with 200 μL of 1× PBS/0.1% Tween20®. The wells are treated overnight at 4° C. with 200 μL of a 5% milk solution in 1× PBS/0.1% Tween20®. The solution is then discarded, and the plate is drained dry.
The test is carried out as follows:
Negative control (lowest signal level): 100 μL of buffer ([…] Tris-HCl, 250 mM NaCl, pH 8.0);
Positive control (highest signal level): 50 μL of buffer and 50 μL of a test solution at 25 (library screening) or 3 μM (screening of analogue molecules) of the PscE protein;
Test of the inhibitors: 40 μL buffer, 50 μL of a solution at 25 μM (library screening) or 3 μM (screening of analogue molecules) of PscE protein and 10 μL of the solution containing the inhibitor to be tested.
The solutions are left for 4 h at room temperature.
The wells are washed three times with 200 μL of 1× PBS/0.1% Tween20®. The anti-PscE antibody diluted to 1:2,000 in 1× PBS/0.1% Tween20®, 50 μL, is added and the whole is left 2 h at room temperature. The wells are washed three times with 200 μL of 1× PBS/0.1% Tween20®. The HRP-conjugated anti-mouse antibody is diluted to 1:5,000 in 1× PBS/0.1% Tween20® and 50 μL is added and left for 2 h at room temperature. The wells are washed three times with 200 μL of 1× PBS/0.1% Tween20®.
The ELISA test is developed by adding 50 μL of TMB reagent followed by incubation for 15 minutes at room temperature in the dark. The reaction is stopped by adding 50 μL of 2N HCl. The plate is read at 450 nm.

What is called IC50 is the concentration that inhibits the measured activity by half. A high value points to lower potency.

The structures appear in SMILES notation.

T1 sequence (Q9I317 whole entry): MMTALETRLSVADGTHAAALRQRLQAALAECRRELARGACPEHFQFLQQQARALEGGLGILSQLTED
T1 sequence (P95435 whole entry): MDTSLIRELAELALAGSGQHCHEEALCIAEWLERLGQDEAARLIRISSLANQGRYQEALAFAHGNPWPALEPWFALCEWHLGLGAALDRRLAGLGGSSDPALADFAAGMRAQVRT

On to `[N-]=[N+]=NCCCCOCCCc1ccc[n+](CCCCOCCCc2cccnc2)c1` [molecule 17, 3-(3-(4-azidobutoxy)propyl)-1-(4-(3-(pyridin-3-yl)propoxy)butyl)pyridinium chloride], for which the “PscE-PscG at 50 μM” value is “no inhibition”.
Turning to `[N-]=[N+]=NCCCCCCOCCCc1ccc[n+](CCCCOCCCc2cccnc2)c1` [molecule 19, 3-(3-(6-azidohexyloxy)propyl)-1-(4-(3-(pyridin-3-yl)propoxy)butyl)pyridinium chloride], the inhibition at 50 µM was determined as 19.8%.
Take `CC(=O)Oc1c(-c2cn(CCCCCCCCCCCCOCCCc3ccc[n+](CCCCCCCCCCCCOCCCc4cccnc4)c3)nn2)cc(Cl)c2cccnc12` [molecule 52, 3-(3-(12-(4-(8-acetoxy-5-chloroquinolin-7-yl)-1H-1,2,3-triazol-1-yl)dodecyloxy)propyl)-1-(12-(3-(pyridin-3-yl)propoxy)dodecyl)pyridinium chloride]: the inhibition at 50 µM came to 3.4%.
With `[N-]=[N+]=NCCCCOCCCc1ccc[n+](CCCCCCOCCCc2cccnc2)c1` [molecule 18, 3-(3-(4-azidobutoxy)propyl)-1-(6-(3-(pyridin-3-yl)propoxy)hexyl)pyridinium chloride], the “PscE-PscG at 50 μM” value is “no inhibition”.
Take `Cc1cc2c(C(C)C)c(O)c(O)c(C=O)c2c(O)c1-c1c(C)cc2c(C(C)C)c(O)c(O)c(C=O)c2c1O` [Gossypol, reference compound]: the inhibition at 25 µM came out at 73.9%.
With `CC(=O)Oc1c(-c2cn(CCCCCCCCCCOCCCc3ccc[n+](CCCCCCCCCCCCOCCCc4cccnc4)c3)nn2)cc(Cl)c2cccnc12` [molecule 50, 3-(3-(10-(4-(8-acetoxy-5-chloroquinolin-7-yl)-1H-1,2,3-triazol-1-yl)decyloxy)propyl)-1-(12-(3-(pyridin-3-yl)propoxy)dodecyl)pyridinium chloride], the inhibition at 50 µM came out at 18.9%.
Take `[N-]=[N+]=NCCCCCCCCCCOCCCc1ccc[n+](CCCCCCOCCCc2cccnc2)c1` [molecule 24, 3-(3-(10-azidodecyloxy)propyl)-1-(6-(3-(pyridin-3-yl)propoxy)hexyl)pyridinium chloride]: the inhibition at 50 µM was 38.6%.
Consider `O=C(O)CN(CCN(CC(=O)O)CC(=O)O)CCN(CC(=O)O)CC(=O)O` [Pentetic acid, reference compound], for which, under “primary screening of libraries, 50 μm compound, PscG 1 μM, PscE solution 25 μM”, the “% inhibition PscE-PscG at 50 μm” value is recorded as 94%.
`CC(=O)Oc1c(-c2cn(CCCCCCCCOCCCc3ccc[n+](CCCCCCOCCCc4cccnc4)c3)nn2)cc(Cl)c2cccnc12` [molecule 41, 3-(3-(8-(4-(8-acetoxy-5-chloroquinolin-7-yl)-1H-1,2,3-triazol-1-yl)octyloxy)propyl)-1-(6-(3-(pyridin-3-yl)propoxy)hexyl)pyridinium chloride]: the inhibition at 50 µM was 69.1% and the “inhibitory effect compared with clioquinol” value was “superior to clioquinol”.
For `CC(=O)Oc1c(-c2cn(CCCCCCCCCCCCOCCCc3ccc[n+](CCCCCCCCOCCCc4cccnc4)c3)nn2)cc(Cl)c2cccnc12` [molecule 49, 3-(3-(12-(4-(8-acetoxy-5-chloroquinolin-7-yl)-1H-1,2,3-triazol-1-yl)dodecyloxy)propyl)-1-(8-(3-(pyridin-3-yl)propoxy)octyl)pyridinium chloride], in that order: 69.8% and “superior to clioquinol”.
Take `NC(CO)C(=O)NNCc1ccc(O)c(O)c1O` (stereo not drawn) [Benserazide, reference compound]: the midpoint of inhibition, the IC50, lay at 11 µM and the inhibition at 25 µM amounted to 86.3%.
As for `[N-]=[N+]=NCCCCCCOCCCc1ccc[n+](CCCCCCCCCCCCOCCCc2cccnc2)c1` [molecule 28, 3-(3-(6-azidohexyloxy)propyl)-1-(12-(3-(pyridin-3-yl)propoxy)dodecyl)pyridinium chloride], the inhibition at 50 µM came out at 37.8%.
